Assay [1] deals with HT1080 tet-off Flag-XBP-1s cells. Description: Colony formation of HT1080 tet-off Flag-XBP-1s cells under hypoxia. In kind it is cell-based, human. To be noted: 2.5 μM, hypoxia 48 hours. The method, then: A. Effect of irestatin 9389 on PERK and ATF6 pathways. HT1080 cells were treated with vehicle alone (lanes 1-4) or 2.5 μM irestatin 9389 (lanes 5-8) and cultured under aerobic conditions for 18 hours (N) or shifted to hypoxia for the indicated times. Protein lysates were analyzed by Western blot analysis using antisera specific for ATF6 (top), CHOP/GADD153 (middle) or actin (bottom). Arrow indicates the cleaved, transcriptionally active form of ATF6. B. Cleavage of caspase-3 in irestatin-treated cells under hypoxia. HT1080 cells were cultured in normoxia (N) or under hypoxia for 36 hours (H 36) in absence or presence of irestatin 9389 (2.5 μM). Arrows indicate proteolytically cleaved caspase-3. C. Colony formation assay. HT1080 cells were treated as in B under normoxia (N) or hypoxia for 48 hours (H 48). Cells were harvested, counted, and allowed to grow under normal culture conditions for 11-12 days. Colonies were visualized with crystal violet staining. D. Quantification of clonogenic survival assay. Values represent the mean+/−SEM from at least 4 independent experiments. E. TUNEL staining of cells treated as in C. F. Quantification of TUNEL-positive cells. Values represent the mean+/− SEM from at least 3 experiments. […] Cells were harvested at the indicated times and counted by hemocytometer. Values represent the mean calculated from triplicate experiments+/−SEM. […]

The subject of the next assay is HT1080 tumor xenografts. The assay is described as follows: Immunohistochemical analysis of tumor xenografts (pimonidazole, cleaved caspase-3). In kind it is in vivo, mice. To be noted: three doses, 50 mg/kg. The method, then: Tumor-bearing mice were injected i.p. with hypoxyprobe (50 mg/kg) 1 hour prior to sacrifice. Mice were euthanised under anesthesia by cervical dislocation, and tumors were surgically resected, embedded in OCT compound (Sakura Tissue Tek), and frozen at −80° C. Tumors were sectioned at 8 μm, fixed in 4% paraformaldehyde, and blocked in PBS-4% BSA. Tissue sections were incubated overnight in block solution containing antisera specific for hypoxyprobe (1:250) and cleaved caspase-3 (1:400). Slides were washed three times with block solution and incubated for 2 hours at room temperature with anti-mouse Alexa 488 or anti-rabbit Alexa 594 (Invitrogen, San Diego, Calif.). Slides were washed five times in block solution, and coverslips mounted with Permount supplemented with DAPI.
Immunohistochemical analysis of tumor xenografts. […] D. Quantification of tumor immunohistochemistry. At least 8 randomly chosen fields (>300 cells/field) per tumor were scored for pimonidazole and cleaved caspase-3 staining. A minimum of 3 tumors (250-300 mm^3 at harvest) were analyzed per treatment group. […]
We further examined tumors from control and irestatin-treated mice for differences in cell survival. […] The increase in apoptosis was most pronounced in hypoxic tissue regions of tumors, as determined by co-immunoreactivity for pimonidazole adducts (FIG. 14C, bottom panel). […]

With `Cc1csc(NC(=O)CSc2nc3c(c(C(F)(F)F)c2C#N)CCC3)n1` [Compound 9389], in assay [1] (dox present (no Flag-XBP-1s)), the decrease in viability was approximately 60 fold. For the same molecule, the “survival of hypoxic cells expressing Flag-XBP-1s” value in assay [1] (no dox) is “minimal effect on the survival”. Further, the “cleaved caspase-3 in tumors relative to vehicle” value in the assay with HT1080 tumor xenografts is listed as “significant increase in cleaved caspase-3”. Moreover, in the assay with HT1080 tumor xenografts (cleaved caspase-3 in pimonidazole-positive cells), the “apoptotic fraction of hypoxic cells in tumors” value was approximately 45%.
